Results reported in patent US20170100396A1 (priority 2015, published 2017).

target: PB2 cap binding domain (PB2-CBD) (residues 318-483) (Influenza A virus (A/duck/Shantou/4610/2003(H5N1)), UniProt Q2LG68); assay: not given; set-up: species or system avian influenza strain A/duck/Shantou/4610/2003(H5N1); settings: not given

In the case of `CC(C)c1cnc2[nH]cc(C(=O)NCC(C)(C)C)c2n1`, the “Fp (result in words)” value is reported as “No displacement”.
For `O=C(NCC1CC1)c1c[nH]c2ncc(-c3ccccc3Cl)nc12`, the “Fp (result in words)” value was “No displacement”.
In the case of `CS(=O)(=O)c1cccc(CNC(=O)c2c[nH]c3ncc(-c4ccccc4Cl)nc23)c1`, the “Fp (result in words)” value is reported as “No displacement”.

system: influenza A virus (IAV) A/Aichi/2/68 (H3N2); assay: microbe, parasite or virus in culture; assay type: cell-based, influenza A virus in MDCK cells; settings: Influenza A virus, H3N2, MDCK, 48 h, read-out: CPE IC50

First: O=C(N[C@@H](C(=O)NCc1ccc(Cl)cc1Cl)C1CC1)c1c[nH]c2ncc(C3CC3)nc12
Second: O=C(N[C@@H](C(=O)NCc1ccc(Cl)c(Cl)c1)C1CC1)c1c[nH]c2ncc(C3CC3)nc12
The IC50 of the first is 2.4-fold higher: 11.2 µM for the first, 4.7 µM for the second. The second is the more potent here.

First: O=C(NCCc1ccccc1)c1c[nH]c2ncc(C3CC3)nc12
Second: O=C(N[C@@H](C(=O)NCCc1ccccc1)C1CC1)c1c[nH]c2ncc(C3CC3)nc12
The IC50 of the first is lower: 66.9 µM for the first, greater than 100 µM for the second. The first is the more potent here.

Going from `CC(C)c1cnc2[nH]cc(C(=O)NCC(C)(C)C)c2n1` to `CC(C)c1cnc2[nH]cc(C(=O)NC3CCCCC3O)c2n1` (stereo not drawn), the IC50 falls from 52.2 µM to 11.3 µM (4.6-fold).

Going from `COC(=O)c1cccc(CNC(=O)[C@H](NC(=O)c2c[nH]c3ncc(C4CC4)nc23)C2CC2)c1` to `N#Cc1cccc(CNC(=O)[C@H](NC(=O)c2c[nH]c3ncc(C4CC4)nc23)C2CC2)c1`, the IC50 rises from 4.8 µM to 12.4 µM (2.6-fold).

First: O=C(N[C@@H](C(=O)NCc1ccc(F)cc1)C1CC1)c1c[nH]c2ncc(C3CC3)nc12
Second: O=C(N[C@@H](C(=O)NCc1ccc(C(F)(F)F)cc1)C1CC1)c1c[nH]c2ncc(C3CC3)nc12
The IC50 of the first is 3.5-fold higher: 16.1 µM for the first, 4.6 µM for the second. The second is the more potent here.

Going from `O=C(N[C@@H](C(=O)NCc1ccccc1Cl)C1CC1)c1c[nH]c2ncc(C3CC3)nc12` to `O=C(N[C@@H](C(=O)NCc1ccccc1F)C1CC1)c1c[nH]c2ncc(C3CC3)nc12`, the IC50 rises from 8.8 µM to 14.6 µM (1.7-fold).

`CC(C)C[C@@H](NC(=O)c1c[nH]c2ncc(C3CC3)nc12)C(=O)N1CCCC1` and `O=C(N[C@@H](C(=O)N1CCCCC1)C1CC1)c1c[nH]c2ncc(C3CC3)nc12` cannot be ordered by IC50: greater than 100 µM for the first, greater than 100 µM for the second.

`CC(C)C[C@@H](NC(=O)c1c[nH]c2ncc(C3CC3)nc12)C(=O)N1CC2(CN(C(=O)OC(C)(C)C)C2)C1` and `CC(C)C[C@@H](NC(=O)c1c[nH]c2ncc(C3CC3)nc12)C(=O)NCCC(=O)NCc1ccccn1` cannot be ordered by IC50: greater than 100 µM for the first, greater than 100 µM for the second.

First: O=C(N[C@@H](C(=O)NCc1cc(Cl)cc(Cl)c1)C1CC1)c1c[nH]c2ncc(C3CC3)nc12
Second: O=C(N[C@@H](C(=O)NCc1ccc(F)c(F)c1)C1CC1)c1c[nH]c2ncc(C3CC3)nc12
The IC50 of the first is higher: greater than 25 µM for the first, 14.8 µM for the second. The second is the more potent here.

`O=C(N[C@@H](C(=O)NCC(=O)N1CCCC1)C1CC1)c1c[nH]c2ncc(C3CC3)nc12` and `O=C(N[C@@H](C(=O)N1CCC[C@H](C(=O)N2CCCC2)C1)C1CC1)c1c[nH]c2ncc(C3CC3)nc12` cannot be ordered by IC50: greater than 100 µM for the first, greater than 100 µM for the second.

`CS(=O)(=O)CCNC(=O)c1c[nH]c2ncc(-c3ccccc3Cl)nc12` and `CC(C)C[C@@H](NC(=O)c1c[nH]c2ncc(C3CC3)nc12)C(=O)NCC(=O)NCc1ccccc1` cannot be ordered by IC50: greater than 100 µM for the first, greater than 100 µM for the second.

`O=C(N[C@@H](C(=O)N1CCC[C@H](C(=O)N2CCOCC2)C1)C1CC1)c1c[nH]c2ncc(C3CC3)nc12` gave an IC50 greater than 100 µM.

same assay, conditions: Influenza A virus, H3N2, read-out: % CPE reduction

In order of falling inhibition at 5 µM:
1. CCOC(=O)C1(c2cccc(-c3cnc4[nH]cc(C(=O)NC(C)C)c4n3)c2)CC1  -0.5%
2. O=C(N[C@@H](C(=O)NCc1ccccc1)C1CCCCC1)c1c[nH]c2ncc(C3CC3)nc12  -2.2%

In order of rising inhibition at 50 µM:
1. O=C(N[C@@H](C(=O)NCc1ccncc1)C1CCCCC1)c1c[nH]c2ncc(C3CC3)nc12  -8.3%
2. O=C(N[C@@H](C(=O)N[C@H]1CC[C@H](C(=O)O)CC1)C1CCCCC1)c1c[nH]c2ncc(C3CC3)nc12  14.8%

Work on `COc1ccc(C(C)(C)CNC(=O)c2c[nH]c3ncc(C4CC4)nc23)cc1OC` yielded an inhibition at 2.5 µM of 15.8%.

same assay, conditions: Influenza A virus, H3N2, read-out: CPE IC50

Work on `CS(=O)(=O)c1cccc(CNC(=O)c2c[nH]c3ncc(-c4ccccc4Cl)nc23)c1` yielded an IC50 of 22.5 µM.

system: not listed separately; assay: in vitro; settings: dog

`O=C(N[C@@H](C(=O)NCc1ccc(Cl)cc1Cl)C1CC1)c1c[nH]c2ncc(C3CC3)nc12` and `N#Cc1cccc(CNC(=O)[C@H](NC(=O)c2c[nH]c3ncc(C4CC4)nc23)C2CC2)c1` cannot be ordered by CC50: greater than 12.5 µM for the first, greater than 50 µM for the second.

Going from `O=C(NCCc1ccccc1)c1c[nH]c2ncc(C3CC3)nc12` to `COC(=O)c1cccc(CNC(=O)[C@H](NC(=O)c2c[nH]c3ncc(C4CC4)nc23)C2CC2)c1`, the CC50 falls from greater than 100 µM to 63.9 µM.
